system: VEGF; experiment: Hypoxia-inducible endogenous VEGF expression ELISA in HeLa cells; assay type: cell-based; conditions: Homo sapiens, HeLa, compounds 1-155, hypoxic conditions (1% O2), VEGF protein by ELISA, read-out: ELISA Activity
Protocol: The ability of compounds of the invention to modulate hypoxia-inducible endogenous VEGF expression is analyzed as follows. VEGF protein levels are monitored by an ELISA assay (R&D Systems). Briefly, HeLa cells are cultured for 24-48 hours under hypoxic conditions (1% O2, 5% CO2, balanced with nitrogen) in the presence or absence of a compound of the invention. The conditioned media is then assayed by ELISA, and the concentration of VEGF is calculated from the standard ELISA curve of each assay.
A dose-response analysis is performed using the ELISA assay and conditions described above. A series of different concentrations (e.g., seven) are analyzed. In parallel, a dose-response cytotoxicity assay is performed using Cell Titer Glo (Promega) under the same conditions as the ELISA to ensure that the inhibition of VEGF expression is not due to cytotoxicity. Dose-response curves are plotted using percentage inhibition versus concentration of the compound, and EC50 and CC50 values are generated for each compound with the maximal inhibition set as 100% and the minimal inhibition as 0%.
Compounds 156-188 in Table 1 are commercially available. In Table 1, each of the represented compounds is followed by one to five stars.

SMILES | EC50 [nM]
N#Cc1ccn(C2CCCc3c2[nH]c2ccc(Br)cc32)c1 (stereo not drawn) [Compound 42, 1-(6-Bromo-2,3,4,9-tetrahydro-1H-carbazol-1-yl)-1H-pyrrole-3-carbonitrile] | 40 to 200
Brc1cccc2[nH]c3c(c12)CCCC3Nc1ccccc1 (stereo not drawn) [Compound 43, (5-Bromo-2,3,4,9-tetrahydro-1H-carbazol-1-yl)-phenyl-amine] | 40 to 200
N#Cc1ccc(NC2CCCc3c2[nH]c2ccc(Br)cc32)cc1 (stereo not drawn) [Compound 44, 4-(6-Bromo-2,3,4,9-tetrahydro-1H-carbazol-1-ylamino)-benzonitrile] | 40 to 200
COc1ccccc1NC1CCCc2c1[nH]c1ccc(Br)cc21 (stereo not drawn) [Compound 45, (6-Bromo-2,3,4,9-tetrahydro-1H-carbazol-1-yl)-(2-methoxy-phenyl)-amine] | 40 to 200
O=S(=O)(NC1CCCc2c1[nH]c1ccc(Br)cc21)c1ccccc1 (stereo not drawn) [Compound 46, N-(6-Bromo-2,3,4,9-tetrahydro-1H-carbazol-1-yl)-benzenesulfonamide] | 40 to 200
Brc1ccc2c3c([nH]c2c1)C(Nc1ccccc1)CCC3 (stereo not drawn) [Compound 47, (7-Bromo-2,3,4,9-tetrahydro-1H-carbazol-1-yl)-phenyl-amine] | 40 to 200
Clc1ccc2[nH]c3c(c2c1Cl)CCCC3n1cccc1 (stereo not drawn) [Compound 48, 5,6-Dichloro-1-pyrrol-1-yl-2,3,4,9-tetrahydro-1H-carbazole] | 40 to 200
Brc1ccc2[nH]c3c(c2c1)CCCC3n1ccc(CNc2ccccc2)c1 (stereo not drawn) [Compound 49, [1-(6-Bromo-2,3,4,9-tetrahydro-1H-carbazol-1-yl)-1H-pyrrol-3-ylmethyl]-phenyl-amine] | 40 to 200
O=C1CCCc2c1[nH]c1ccc(Br)cc21 [Compound 50, 6-Bromo-2,3,4,9-tetrahydro-carbazol-1-one] | 40 to 200
Brc1ccc2[nH]c3c(c2c1)CCCC3Nc1ccon1 (stereo not drawn) [Compound 51, (6-Bromo-2,3,4,9-tetrahydro-1H-carbazol-1-yl)-isoxazol-3-yl-amine] | 40 to 200
O=C(NC1CCCc2c1[nH]c1ccc(Br)cc21)c1ccc(Cl)nc1 (stereo not drawn) [Compound 52, N-(6-Bromo-2,3,4,9-tetrahydro-1H-carbazol-1-yl)-6-chloro-nicotinamide] | 40 to 200
CC1CCc2c(n(C)c3ccc(Br)cc23)C1=O (stereo not drawn) [Compound 53, 6-Bromo-2,9-dimethyl-2,3,4,9-tetrahydro-carbazol-1-one] | 40 to 200
Fc1ccc(OC2CCCc3c2[nH]c2ccc(Br)cc32)cc1 (stereo not drawn) [Compound 54, 6-Bromo-1-(4-fluoro-phenoxy)-2,3,4,9-tetrahydro-1H-carbazole] | 40 to 200
COc1cccc(CNC2CCCc3c2[nH]c2ccc(Br)cc32)c1OC (stereo not drawn) [Compound 55, (6-Bromo-2,3,4,9-tetrahydro-1H-carbazol-1-yl)-(2,3-dimethoxy-benzyl)-amine] | 40 to 200
COc1ccc2[nH]c3c(c2c1)CCCC3n1cccc1 (stereo not drawn) [Compound 56, 6-Methoxy-1-pyrrol-1-yl-2,3,4,9-tetrahydro-1H-carbazole] | 40 to 200
CC(=O)Nc1ccc(NC2CCCc3c2[nH]c2ccc(Br)cc32)cc1 (stereo not drawn) [Compound 57, N-[4-(6-Bromo-2,3,4,9-tetrahydro-1H-carbazol-1-ylamino)-phenyl]-acetamide] | 200 to 1000
O=C(NC1CCCc2c1[nH]c1ccc(Br)cc21)c1cccnc1 (stereo not drawn) [Compound 58, N-(6-Bromo-2,3,4,9-tetrahydro-1H-carbazol-1-yl)-nicotinamide] | 40 to 200
N#Cc1ccc2[nH]c3c(c2c1)CCCC3n1cccc1 (stereo not drawn) [Compound 59, 8-Pyrrol-1-yl-6,7,8,9-tetrahydro-5H-carbazole-3-carbonitrile] | 200 to 1000

SMILES | EC50 [nM]
O=C1CCCc2c1[nH]c1ccc(C(F)(F)F)cc21 [Compound 60, 6-Trifluoromethyl-2,3,4,9-tetrahydro-carbazol-1-one] | 200 to 1000
CN(C)c1ccc(NC2CCCc3c2[nH]c2ccc(Br)cc32)cc1 (stereo not drawn) [Compound 61, N-(6-Bromo-2,3,4,9-tetrahydro-1H-carbazol-1-yl)-N′,N′-dimethyl-benzene-1,4-diamine] | 200 to 1000
Brc1ccc2[nH]c3c(c2c1)CCCC3NCc1ccc2c(c1)OCO2 (stereo not drawn) [Compound 62, Benzo[1,3]dioxo-5-ylmethyl-(6-bromo-2,3,4,9-tetrahydro-1H-carbazol-1-yl)-amine] | 200 to 1000
OCCc1cccc(NC2CCCc3c2[nH]c2ccc(Br)cc32)c1 (stereo not drawn) [Compound 63, 2-[3-(6-Bromo-2,3,4,9-tetrahydro-1H-carbazol-1-ylamino)-phenyl]-ethanol] | 200 to 1000
Brc1ccc2[nH]c3c(c2c1)CCCC3n1ccc(CN2CCOCC2)c1 (stereo not drawn) [Compound 64, 6-Bromo-1-(3-morpholin-4-ylmethyl-pyrrol-1-yl)-2,3,4,9-tetrahydro-1H-carbazole] | 200 to 1000
Brc1ccc2[nH]c3c(c2c1)CCCC3N1CC=CC1 (stereo not drawn) [Compound 65, 6-Bromo-1-(2,5-dihydro-pyrrol-1-yl)-2,3,4,9-tetrahydro-1H-carbazole] | 200 to 1000
CN(C(=O)c1cccc(Cl)c1)C1CCCc2c1[nH]c1ccc(Br)cc21 (stereo not drawn) [Compound 66, N-(6-Bromo-2,3,4,9-tetrahydro-1H-carbazol-1-yl)-3-chloro-N-methyl-benzamide] | 200 to 1000
Brc1ccc2[nH]c3c(c2c1)CCCC3NCC1CCCCC1 (stereo not drawn) [Compound 67, (6-Bromo-2,3,4,9-tetrahydro-1H-carbazol-1-yl)-cyclohexylmethyl-amine] | 200 to 1000
Brc1ccc2[nH]c3c(c2c1)CCCC3NCc1ccco1 (stereo not drawn) [Compound 68, (6-Bromo-2,3,4,9-tetrahydro-1H-carbazol-1-yl)-furan-2-ylmethyl-amine] | 200 to 1000
CN(C(=O)c1ccccc1)C1CCCc2c1[nH]c1ccc(Br)cc21 (stereo not drawn) [Compound 69, N-(6-Bromo-2,3,4,9-tetrahydro-1H-carbazol-1-yl)-N-methyl-benzamide] | 200 to 1000
Cc1ccc(C)n1C1CCCc2c1[nH]c1ccc(Br)cc21 (stereo not drawn) [Compound 70, 6-Bromo-1-(2,5-dimethylpyrrol-1-yl)-2,3,4,9-tetrahydro-1H-carbazole] | 200 to 1000
Cc1ccc2[nH]c3c(c2c1)CCCC3=O [Compound 71, 6-Methyl-2,3,4,9-tetrahydro-carbazol-1-one] | 200 to 1000
CCCCNC1CCCc2c1[nH]c1ccc(Br)cc21 (stereo not drawn) [Compound 72, (6-Bromo-2,3,4,9-tetrahydro-1H-carbazol-1-yl)-butyl-amine] | 200 to 1000
O=C1CCCc2c1[nH]c1ccc(OC(F)(F)F)cc21 [Compound 73, 6-Trifluoromethoxy-2,3,4,9-tetrahydro-carbazol-1-one] | 200 to 1000
O=C(NC1CCCc2c1[nH]c1ccc(Br)cc21)c1cnccn1 (stereo not drawn) [Compound 74, Pyrazine-2-carboxylic acid (6-bromo-2,3,4,9-tetrahydro-1H-carbazol-1-yl)-amide] | < 10
O=C1CCCc2c1[nH]c1ccc(Cl)cc21 [Compound 76, 6-Chloro-2,3,4,9-tetrahydro-carbazol-1-one] | > 1000
Brc1ccc2[nH]c3c(c2c1)CCCC3NCC1CCCO1 (stereo not drawn) [Compound 77, (6-Bromo-2,3,4,9-tetrahydro-1H-carbazol-1-yl)-(tetrahydro-furan-2-ylmethyl)-amine] | > 1000

same assay, conditions: Homo sapiens, compounds 1-155, hypoxic conditions (1% O2), VEGF protein by ELISA, read-out: ELISA Activity

SMILES | EC50 [nM]
O=C(NC1CCCc2c1[nH]c1ccc(Br)cc21)Oc1ccccc1 (stereo not drawn) [Compound 75, (6-Bromo-2,3,4,9-tetrahydro-1H-carbazol-1-yl)-carbamic acid phenyl ester] | > 1000
